In patent US20260363244A1, “HERBICIDAL COMPOSITIONS COMPRISING URACILS” (BASF SE, priority 2022, published 2026):
Read-outs that look alike come from different tables or passages of the source.

Columns and labels:
Assay type in all cases: in vivo
Echinocloa crus-galli = test: greenhouse post-emergence herbicidal activity, ECHCG; conditions: Echinochloa crus-galli, post-emergence, read-out: % activity (solo application)
Description: (§1) The following examples serve to illustrate the invention.
(§2) The culture containers used were plastic pots containing loamy sand with approximately 3.0% of humus as substrate. The seeds of the test plants were sown separately for each species.
(§3) For the post-emergence treatment, the test plants were grown to a plant height of from 3 to 15 cm, depending on the plant habit, and only then treated with the active compounds which had been suspended or emulsified in water. To this end, the test plants were either sown directly, and grown in the same containers, or they were first grown separately as seedlings and transplanted into the test containers a few days prior to treatment.
(§4) Depending on the species, the plants were kept at 10-25 °C and 20-35 °C, respectively. The test period extended over 2 to 4 weeks. During this time, the plants were tended and their response to the individual treatments was evaluated.
(§5) Evaluation was carried out using a scale from 0 to 100. 100 means no emergence of the plants, or complete destruction of at least the above-ground parts, and 0 means no damage or normal course of growth. A good herbicidal activity is given at values of at least 70, and very good herbicidal activity is given at values of at least 85.
(§6) The respective stated components A and B, and if appropriate, C were formulated as a 5% by weight strength emulsion concentrate and, with addition of the amount of solvent system, introduced into the spray liquor used for applying the active compound. In the examples, the solvent used was water.
(§7) In the examples below, using the method of S. R. Colby (1967) “Calculating synergistic and antagonistic responses of herbicide combinations”, Weeds 15, p. 22ff., the value E, which is expected if the activity of the individual active compounds is only additive, was calculated.
(§8) E=X+Y−(X·Y/100) • where • X=percent activity using active compound A at an application rate a; • Y=percent activity using active compound B at an application rate b; • E=expected activity (in %) by A+B at application rates a+b.
(§9) The plants used in the greenhouse experiments were of the following species
(§10) In this context, a.i. means active ingredient, based on 100% active ingredient.
(§11) As indicated the application was post emergent (POST) at the respective growth stage (GS) of the weed.
(§12) Assessment was at the indicated days after treatment (DAT).

Avena fatua = test: greenhouse post-emergence herbicidal activity, AVEFA; conditions: read-out: % activity (solo application); for activity at 0.8 g/ha: 0.8 gai/ha; for activity at 0.5 g/ha: 0.5 gai/ha
Description: as §1, §2, §3, §4, §5, §6, §7, §8, §9, §10, §11, §12

Sorghum halepense = test: greenhouse post-emergence herbicidal activity, SORHA; conditions: Sorghum halepense, post-emergence, 480 h, GS 11-33, 20 DAT, read-out: % activity (solo application)
Description: as §1, §2, §3, §4, §5, §6, §7, §8, §9, §10, §11, §12

Commenline benghalensis = test: greenhouse post-emergence herbicidal activity, COMBE; conditions: read-out: % activity (solo application)
Description: as §1, §2, §3, §4, §5, §6, §7, §8, §9, §10, §11, §12

Amaranthus tamariscinus = test: greenhouse post-emergence herbicidal activity, AMATA; conditions: read-out: % activity (solo application); for activity at 0.5 g/ha: 0.5 gai/ha; for activity at 0.2 g/ha: 0.2 gai/ha
Description: as §1, §2, §3, §4, §5, §6, §7, §8, §9, §10, §11, §12

Lolium multiflorum = test: greenhouse post-emergence herbicidal activity, LOLMU; conditions: Lolium multiflorum, post-emergence, read-out: % activity (solo application); for activity at […]: 1.6 gai/ha
Description: as §1, §2, §3, §4, §5, §6, §7, §8, §9, §10, §11, §12

Brachiaria decumbens = test: greenhouse post-emergence herbicidal activity, BRADC; conditions: Urochloa decumbens, post-emergence, 1.6 gai/ha, read-out: % activity (solo application)
Description: as §1, §2, §3, §4, §5, §6, §7, §8, §9, §10, §11, §12

Kochia scoparia = test: greenhouse post-emergence herbicidal activity, KCHSC; conditions: Bassia scoparia, post-emergence, read-out: % activity (solo application); for activity at 0.4 g/ha: 0.4 gai/ha; for activity at 0.8 g/ha: 0.8 gai/ha
Description: as §1, §2, §3, §4, §5, §6, §7, §8, §9, §10, §11, §12

Setaria faberi = test: greenhouse post-emergence herbicidal activity, SETFA; conditions: for % activity (solo application) / activity at 0.5 g/ha: 0.5 gai/ha; for activity at […]: 0.25 gai/ha
Description: as §1, §2, §3, §4, §5, §6, §7, §8, §9, §10, §11, §12

Digitaria sanguinales = test: greenhouse post-emergence herbicidal activity, DIGSA; conditions: Digitaria, post-emergence, read-out: % activity (solo application)
Description: as §1, §2, §3, §4, §5, §6, §7, §8, §9, §10, §11, §12

Abutilon theophrasti = test: greenhouse post-emergence herbicidal activity, ABUTH; conditions: read-out: % activity (solo application); for activity at 0.5 g/ha: 0.5 gai/ha; for activity at 0.4 g/ha: 0.4 gai/ha; for activity at 0.8 g/ha: 0.8 gai/ha
Description: as §1, §2, §3, §4, §5, §6, §7, §8, §9, §10, §11, §12

Eleusine indica = test: greenhouse post-emergence herbicidal activity, ELEIN; conditions: read-out: % activity (solo application); for activity at […]: 1.6 gai/ha
Description: as §1, §2, §3, §4, §5, §6, §7, §8, §9, §10, §11, §12

Setaria viridis = test: greenhouse post-emergence herbicidal activity, SETVI; conditions: Setaria viridis, post-emergence, read-out: % activity (solo application); for activity at 0.5 g/ha: 0.5 gai/ha; for activity at 0.2 g/ha: 0.2 gai/ha; for activity at 0.4 g/ha: 0.4 gai/ha
Description: as §1, §2, §3, §4, §5, §6, §7, §8, §9, §10, §11, §12

[1] = 144 h, GS 12-16, 6 DAT, 0.25 gai/ha
[2] = 144 h, GS 12-16, 6 DAT, 0.5 gai/ha
[3] = 168 h, GS 11-33, 7 DAT, 1.6 gai/ha
[4] = 480 h, GS 11-33, 20 DAT, 1.6 gai/ha
[5] = 168 h, GS 12-16, 7 DAT, 0.25 gai/ha
[6] = 480 h, GS 11-33, 20 DAT, 0.2 gai/ha
[7] = 480 h, GS 12-16, 20 DAT, 0.25 gai/ha
[8] = 168 h, GS 11-33, 7 DAT, 0.2 gai/ha
[9] = Setaria faberi, post-emergence, 144 h, GS 12-16, 6 DAT, read-out: % activity (solo application)
[10] = Setaria faberi, post-emergence, 480 h, GS 12-16, 20 DAT, read-out: % activity (solo application)
[11] = 480 h, GS 12-16, 20 DAT, 0.5 gai/ha

CCOC(=O)COc1ccccc1Oc1nc(-n2c(=O)cc(C(F)(F)F)n(C)c2=O)c(F)cc1Cl [(I.3)]
activity at […] (Echinocloa crus-galli; [1]): 40%
activity at 0.5 g/ha (Echinocloa crus-galli; [2]): 55%
activity at […] (Echinocloa crus-galli; [3]): 60%
activity at […] (Echinocloa crus-galli; [4]): 60%
activity at […] (Avena fatua; [1]): 35%
activity at 0.8 g/ha (Avena fatua; 168 h, GS 11-33, 7 DAT): 25%
activity at […] (Avena fatua; [3]): 40%
activity at […] (Avena fatua; [5]): 35%
activity at 0.5 g/ha (Avena fatua; 168 h, GS 12-16, 7 DAT): 40%
activity at 0.2 g/ha (Avena fatua; [6]): 10%
activity at 0.8 g/ha (Avena fatua; 480 h, GS 11-33, 20 DAT): 15%
activity at […] (Avena fatua; [4]): 30%
activity at […] (Avena fatua; [7]): 10%
activity at 0.5 g/ha (Avena fatua; 480 h, GS 12-16, 20 DAT): 25%
activity at 0.2 g/ha (Sorghum halepense; 0.2 gai/ha): 10%
activity at 0.4 g/ha (Sorghum halepense; 0.4 gai/ha): 20%
activity at 0.8 g/ha (Sorghum halepense; 0.8 gai/ha): 30%
activity at […] (Sorghum halepense; 1.6 gai/ha): 30%
activity at […] (Commenline benghalensis; [1]): 40%
activity at 0.5 g/ha (Commenline benghalensis; [2]): 90%
activity at 0.2 g/ha (Commenline benghalensis; [8]): 20%
activity at […] (Commenline benghalensis; [4]): 95%
activity at […] (Commenline benghalensis; [7]): 60%
activity at 0.5 g/ha (Amaranthus tamariscinus; 144 h, GS 12-16, 6 DAT): 90%
activity at 0.2 g/ha (Amaranthus tamariscinus; 168 h, GS 11-33, 7 DAT): 70%
activity at 0.2 g/ha (Amaranthus tamariscinus; 480 h, GS 11-33, 20 DAT): 40%
activity at […] (Amaranthus tamariscinus; [4]): 90%
activity at […] (Amaranthus tamariscinus; [7]): 70%
activity at 0.5 g/ha (Amaranthus tamariscinus; 480 h, GS 12-16, 20 DAT): 85%
activity at […] (Lolium multiflorum; 168 h, GS 11-33, 7 DAT): 30%
activity at 0.2 g/ha (Lolium multiflorum; [6]): 5%
activity at 0.8 g/ha (Lolium multiflorum; 480 h, GS 11-33, 20 DAT, 0.8 gai/ha): 10%
activity at […] (Lolium multiflorum; 480 h, GS 11-33, 20 DAT): 10%
activity at […] (Brachiaria decumbens; 192 h, GS 11-33, 8 DAT): 50%
activity at […] (Brachiaria decumbens; 480 h, GS 11-33, 20 DAT): 40%
activity at 0.4 g/ha (Kochia scoparia; 168 h, GS 11-33, 7 DAT): 60%
activity at 0.8 g/ha (Kochia scoparia; 168 h, GS 11-33, 7 DAT): 75%
activity at 0.2 g/ha (Kochia scoparia; [6]): 15%
activity at 0.4 g/ha (Kochia scoparia; 480 h, GS 11-33, 20 DAT): 30%
activity at 0.8 g/ha (Kochia scoparia; 480 h, GS 11-33, 20 DAT): 55%
activity at […] (Kochia scoparia; [4]): 75%
activity at […] (Kochia scoparia; [7]): 40%
% activity (solo application) (Setaria faberi; GS 12-16, 6 DAT): 60%
% activity (solo application) (Setaria faberi; GS 12-16, 20 DAT): 60%
activity at […] (Setaria faberi; [9]): 55%
activity at 0.5 g/ha (Setaria faberi; [9]): 65%
activity at 0.5 g/ha (Setaria faberi; Setaria faberi, post-emergence, 168 h, GS 12-16, 7 DAT, read-out: % activity (solo application)): 75%
activity at 0.2 g/ha (Setaria faberi; Setaria faberi, post-emergence, 480 h, GS 11-33, 20 DAT, 0.2 gai/ha, read-out: % activity (solo application)): 15%
activity at 0.4 g/ha (Setaria faberi; Setaria faberi, post-emergence, 480 h, GS 11-33, 20 DAT, 0.4 gai/ha, read-out: % activity (solo application)): 80%
activity at […] (Setaria faberi; [10]): 55%
activity at 0.5 g/ha (Setaria faberi; [10]): 55%
activity at 0.5 g/ha (Setaria faberi; Setaria faberi, post-emergence, 504 h, GS 12-16, 21 DAT, read-out: % activity (solo application)): 70%
activity at 0.4 g/ha (Digitaria sanguinales; 192 h, GS 11-33, 8 DAT, 0.4 gai/ha): 30%
activity at 0.2 g/ha (Digitaria sanguinales; [6]): 10%
activity at 0.5 g/ha (Digitaria sanguinales; [11]): 35%
activity at 0.5 g/ha (Abutilon theophrasti; 144 h, GS 12-16, 6 DAT): 95%
activity at 0.2 g/ha (Abutilon theophrasti; [8]): 80%
activity at 0.4 g/ha (Abutilon theophrasti; 168 h, GS 11-33, 7 DAT): 85%
activity at 0.8 g/ha (Abutilon theophrasti; 168 h, GS 11-33, 7 DAT): 85%
activity at […] (Abutilon theophrasti; [3]): 90%
activity at […] (Abutilon theophrasti; [5]): 85%
activity at 0.5 g/ha (Abutilon theophrasti; 168 h, GS 12-16, 7 DAT): 90%
activity at 0.4 g/ha (Abutilon theophrasti; 480 h, GS 11-33, 20 DAT): 80%
activity at 0.8 g/ha (Abutilon theophrasti; 480 h, GS 11-33, 20 DAT): 80%
activity at […] (Abutilon theophrasti; [4]): 90%
activity at […] (Abutilon theophrasti; 504 h, GS 12-16, 21 DAT, 0.25 gai/ha): 85%
activity at […] (Eleusine indica; 168 h, GS 11-33, 7 DAT): 95%
activity at 0.2 g/ha (Eleusine indica; [6]): 20%
activity at […] (Eleusine indica; 480 h, GS 11-33, 20 DAT): 90%
activity at 0.5 g/ha (Eleusine indica; [11]): 35%
activity at […] (Setaria viridis; [1]): 35%
activity at 0.5 g/ha (Setaria viridis; 144 h, GS 12-16, 6 DAT): 60%
activity at 0.2 g/ha (Setaria viridis; 192 h, GS 11-33, 8 DAT): 20%
activity at 0.4 g/ha (Setaria viridis; 192 h, GS 11-33, 8 DAT): 25%
activity at […] (Setaria viridis; 192 h, GS 11-33, 8 DAT, 1.6 gai/ha): 95%
activity at 0.2 g/ha (Setaria viridis; 480 h, GS 11-33, 20 DAT): 5%
activity at 0.4 g/ha (Setaria viridis; 480 h, GS 11-33, 20 DAT): 10%
activity at […] (Setaria viridis; [4]): 90%
activity at […] (Setaria viridis; [7]): 30%
activity at 0.5 g/ha (Setaria viridis; 480 h, GS 12-16, 20 DAT): 85%
